Test results published in patent publication US20250129069A1, “TRIAZOLO WRN INHIBITORS” (Nimbus Wadjet, Inc., priority 2023, published 2025).
Where two headings read alike, the source gives them in different places.

Key:
[1] = target: human Werner helicase (WRN, amino acids 517-1235 with L1074F point mutation) (Homo sapiens (Human), UniProt Q14191, L1074F); assay: WRN (BV08) ADP-Glo assay; assay type: biochemical; settings: human WRN (aa 517-1235, L1074F), read-out: ADP-Glo_hWRN_IC50
From the text: Bovine skin gelatin (BSG), dimethyl sulfoxide (DMSO), Pluronic F-127 and tris(2-carboxyethyl)phosphine hydrochloride solution (TCEP) were purchased from Sigma-Aldrich (St. Louis, MO) at the highest level of purity possible. Bicine buffer solution was purchased from Alfa Aesar (Tewksbury, MA) and compound NSC-617145 was purchased from Tocris (Minneapolis, MN). DNA duplex was synthesized at BGI (Shenzhen, China) and was composed of strand 1 with the sequence 5′-[…]-3′ (SEQ ID NO.: 1) and strand 2 with the sequence 5′-[…]-3′ (SEQ ID NO.: 2). DNA strands were annealed by heating to 95° C. for 5 minutes followed by slow cooling to room temperature. Compounds in 100% DMSO (0.1 μl) were spotted into a 384-well white polystyrene Optiplate-384 (Perkin Elmer; Waltham, MA) assay plate using a LabCyte Echo 550 (Agilent; Santa Clara, CA). DMSO (0.1 μl) was added to columns 12, rows A-H and column 24, rows I-P for the maximum signal control. Compound NSC-617145 (0.1 μl) was added to columns 12, rows I-P and 24, rows A-H for the minimum signal control (100% inhibition). Compounds/DMSO were preincubated for 15 minutes at 25° C. with 5 μl 2×WRN (BV08), prepared as described below, in assay buffer containing 20 mM Bicine (pH=7.5), 1 mM MgCl2, 10 mM KCl, 0.1% Pluronic F-127, 0.005% BSG, 1 mM TCEP. The reaction was initiated by the addition of 5 μl 2× substrate mixture in assay buffer and incubated for 60 minutes at 25° C. The final concentrations of the assay components were 0.15 nM WRN, 5 μM ATP, and 0.1 nM DNA duplex. The final DMSO concentration was 1% and the reference compound concentration (NSC-617145) used for the minimal signal control was 20 μM. The reaction was stopped by the addition of the ADP-Glo Kit components (Promega; Madison, WI) as directed and the relative luminescence units (RLU) were read on an Envision 2104 (Perkin Elmer; Waltham, MA).
% inhibition calculation:
% INH=(RLU MAX−RLU sample)/(RLU MAX−RLU MIN))×100
Where RLU=relative luminescence units, sample=signal in sample well, and MIN and MAX are the respective minimum and maximum signal controls. Four-parameter IC50 fit equation:
Y=Bottom+(Top−Bottom)/(1+(IC50/X)^Hill Slope)
Where top and bottom are normally allowed to float but may be fixed at 100 or 0 respectively in a 3-parameter fit. Y is the % inhibition and X is the compound concentration.
Molecular Biology and virus production. The DNA encoding human Werner helicase (Uniprot Q14191, amino acids 517-1235 with L1074F point mutation) was generated with codon-optimization for E. coli expression and subcloned into the pFastBac vector with a TEV cleavable 8×His tag (WRN—BV08). The baculovirus from the expression plasmid WRN—BV08 was generated from transfection and amplification following the manufacturer's instructions.
Sf9 cells grown in SF900II media were infected with 1:200 WRN—BV08 P2 virus and incubated for protein expression for 72 h at 27° C. The WRN protein was purified using the following protocol. The cell pellets were thawed and resuspended in buffer A (50 mM Tris, pH 7.5, 500 mM NaCl, 1 mM TCEP, 10% Glycerol) supplemented with 0.5% CHAPS, 1 mM PMSF, […] Leupeptin, 1 μg/ml Pepstatin, and the Pierce Universal Nuclease and cocktail tablet. Cleared lysates were loaded onto a Ni Sepharose™ excel column and washed with buffer A and bound protein was eluted with buffer A supplemented with 300 mM imidazole. The eluted protein was dialyzed against buffer A and digested by His-tagged TEV (1:5 ratio) overnight at 4° C. ZnCl2 was added into the sample at final 15 μM before loading onto a second Ni Sepharose™ excel column. Untagged WRN protein was eluted from the column with buffer A supplemented with 20 mM imidazole, dialyzed overnight into buffer B (50 mM Tris, pH 7.5, 1 mM TCEP, 10% Glycerol) supplemented with 150 mM NaCl and loaded onto a Heparin column. Proteins were eluted with a step gradient of buffer B supplemented with 150 mM, 200 mM, 300 mM and 500 mM NaCl. […]

[2] = test system: p21 induction in HCT 116 cells; assay: p21 induction in cells (In-Cell Western, p21/GAPDH ratio); assay type: cell-based; settings: 24 h compound incubation, read-out: p21_EC50
Outline: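 EC50 values come from nonlinear fits of percent activation, defined by the 800/700 nm p21-to-GAPDH ratio scaled between DMSO (low) and internal WRN inhibitor (high) controls. In-Cell Western read after 24 h compound exposure of HCT 116 cells at 37° C. Duplicate 11-point series, 2-fold steps, usually starting at 10 μM.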

human Werner helicase (WRN, amino acids 517-1235 with L1074F point mutation), sequence (Q14191 other isoform, or with tags, fused parts or gaps L1074F (already in the parent)): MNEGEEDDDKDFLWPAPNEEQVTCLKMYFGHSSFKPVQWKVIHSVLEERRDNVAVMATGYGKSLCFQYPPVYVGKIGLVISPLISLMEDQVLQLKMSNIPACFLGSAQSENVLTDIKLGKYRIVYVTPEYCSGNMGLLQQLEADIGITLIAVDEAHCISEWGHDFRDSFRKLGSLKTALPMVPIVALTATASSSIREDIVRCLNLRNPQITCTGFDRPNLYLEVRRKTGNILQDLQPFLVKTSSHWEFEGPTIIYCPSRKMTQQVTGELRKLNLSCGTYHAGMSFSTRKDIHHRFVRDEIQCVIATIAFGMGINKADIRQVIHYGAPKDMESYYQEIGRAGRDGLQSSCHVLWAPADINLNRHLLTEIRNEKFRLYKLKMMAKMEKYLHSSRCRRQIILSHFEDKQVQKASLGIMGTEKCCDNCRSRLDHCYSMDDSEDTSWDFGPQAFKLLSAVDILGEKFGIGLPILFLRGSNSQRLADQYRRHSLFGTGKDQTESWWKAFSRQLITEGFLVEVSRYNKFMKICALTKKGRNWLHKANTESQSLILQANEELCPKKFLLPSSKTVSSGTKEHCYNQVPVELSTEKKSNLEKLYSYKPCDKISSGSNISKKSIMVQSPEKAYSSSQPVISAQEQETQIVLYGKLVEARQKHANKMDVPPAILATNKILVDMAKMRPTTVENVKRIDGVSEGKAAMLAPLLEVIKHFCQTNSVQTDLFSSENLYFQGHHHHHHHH

Compound CCc1c(N2CCN(C(=O)c3c(O)cncc3OC)CC2)c(=O)c2nn(-c3ccnc(OC)c3)nc2n1CC(=O)NC12CC(C(C)C)(C1)C2 [Compound I-37, 2-{5-ethyl-6-[4-(3-hydroxy-5-methoxypyridine-4-carbonyl)piperazin-1-yl]-2-(2-methoxypyridin-4-yl)-7-oxo-2H,4H,7H-[1,2,3]triazolo[4,5-b]pyridin-4-yl}-N-[3-(propan-2-yl)bicyclo[1.1.1]pentan-1-yl]acetamide] has an IC50 [1] of 5 to 50 nM and an EC50 ([2]; Homo sapiens) of 500 to 2000 nM.
CCc1c(N2CCN(C(=O)c3ncnc(C)c3O)CC2)c(=O)c2nn(-c3ccn(C4CC4)n3)nc2n1CC(=O)Nc1ccc(C(F)(F)F)cc1Cl [Compound I-8, N-(2-chloro-4-(trifluoromethyl)phenyl)-2-(2-(1-cyclopropyl-1H-pyrazol-3-yl)-5-ethyl-6-(4-(5-hydroxy-6-methylpyrimidine-4-carbonyl)piperazin-1-yl)-7-oxo-2,7-dihydro-4H-[1,2,3]triazolo[4,5-b]pyridin-4-yl)acetamide] was tested, and the IC50 [1] was at most 5 nM and the EC50 ([2]; Homo sapiens) was at most 500 nM.
CCc1c(N2CCN(C(=O)c3ncnc(C)c3O)CC2)c(=O)c2nn(-c3ccnc(OC)c3)nc2n1CC(=O)NC12CC(C3CCC3)(C1)C2 [Compound I-140, N-{3-cyclobutylbicyclo[1.1.1]pentan-1-yl}-2-{5-ethyl-6-[4-(5-hydroxy-6-methylpyrimidine-4-carbonyl)piperazin-1-yl]-2-(2-methoxypyridin-4-yl)-7-oxo-2H,4H,7H-[1,2,3]triazolo[4,5-b]pyridin-4-yl}acetamide] showed an IC50 [1] of 5 to 50 nM and an EC50 ([2]; Homo sapiens) of at most 500 nM.
For CCc1c(N2CCN(C(=O)c3c(O)ccc4ncoc34)[C@H]3CC[C@@H]32)c(=O)c2nn(-c3ccnc(OC)c3)nc2n1CC(=O)NC12CC(C(F)(F)F)(C1)C2 [Compound I-148, 2-{5-ethyl-6-[(1S,6S)-5-(6-hydroxy-1,3-benzoxazole-7-carbonyl)-2,5-diazabicyclo[4.2.0]octan-2-yl]-2-(2-methoxypyridin-4-yl)-7-oxo-2H,4H,7H-[1,2,3]triazolo[4,5-b]pyridin-4-yl}-N-[3-(trifluoromethyl)bicyclo[1.1.1]pentan-1-yl]acetamide], the IC50 [1] was 5 to 50 nM and the EC50 ([2]; Homo sapiens) was at most 500 nM.
With CCc1c(N2CCN(C(=O)c3ncnc(C)c3O)[C@H]3CC[C@@H]32)c(=O)c2nn(-c3cnn(C4CC4)c3)nc2n1CC(=O)Nc1ccc(C(F)(F)F)cc1Cl [Compound I-57, N-[2-chloro-4-(trifluoromethyl)phenyl]-2-[2-(1-cyclopropyl-1H-pyrazol-4-yl)-5-ethyl-6-[(1S,6S)-5-(5-hydroxy-6-methylpyrimidine-4-carbonyl)-2,5-diazabicyclo[4.2.0]octan-2-yl]-7-oxo-2H,4H,7H-[1,2,3]triazolo[4,5-b]pyridin-4-yl]acetamide] the IC50 [1] was at most 5 nM and the EC50 ([2]; Homo sapiens) was at most 500 nM.
CCc1c(N2CCN(C(=O)c3ncnc(C)c3O)[C@H]3CC[C@@H]32)c(=O)c2nn(-c3ccnc(OC)c3)nc2n1CC(=O)NC12CC(C(C)(F)F)(C1)C2 [Compound I-27, N-(3-(1,1-difluoroethyl)bicyclo[1.1.1]pentan-1-yl)-2-(5-ethyl-6-((1S,6S)-5-(5-hydroxy-6-methylpyrimidine-4-carbonyl)-2,5-diazabicyclo[4.2.0]octan-2-yl)-2-(2-methoxypyridin-4-yl)-7-oxo-2,7-dihydro-4H-[1,2,3]triazolo[4,5-b]pyridin-4-yl)acetamide] gave an IC50 [1] of 5 to 50 nM and an EC50 ([2]; Homo sapiens) of at most 500 nM.
CCc1c(N2CCN(C(=O)c3ncnc(C)c3O)[C@H]3CC[C@@H]32)c(=O)c2nn(-c3ccnc(C)c3)nc2n1CC(=O)NC12CC(C3CC3)(C1)C2 [Compound I-84, N-{3-cyclopropylbicyclo[1.1.1]pentan-1-yl}-2-{5-ethyl-6-[(1S,6S)-5-(5-hydroxy-6-methylpyrimidine-4-carbonyl)-2,5-diazabicyclo[4.2.0]octan-2-yl]-2-(2-methylpyridin-4-yl)-7-oxo-2H,4H,7H-[1,2,3]triazolo[4,5-b]pyridin-4-yl}acetamide] showed an IC50 [1] of 5 to 50 nM and an EC50 [2] of at most 500 nM.
CCc1c(N2CCN(C(=O)c3ncnc(C)c3O)CC2)c(=O)c2nn(-c3ccncc3)nc2n1CC(=O)NC12CC(CC)(C1)C2 [Compound I-138, 2-{5-ethyl-6-[4-(5-hydroxy-6-methylpyrimidine-4-carbonyl)piperazin-1-yl]-7-oxo-2-(pyridin-4-yl)-2H,4H,7H-[1,2,3]triazolo[4,5-b]pyridin-4-yl}-N-{3-ethylbicyclo[1.1.1]pentan-1-yl}acetamide] showed an IC50 [1] of 5 to 50 nM and an EC50 ([2]; Homo sapiens) of 500 to 2000 nM.
Work on CCc1c(N2CCN(C(=O)c3c(N)ncnc3OC)[C@H]3CC[C@@H]32)c(=O)c2nn(C3=CCOCC3)nc2n1CC(=O)NC12CC(C3CC3)(C1)C2 [Compound I-193, 2-{6-[(1S,6S)-5-(4-amino-6-methoxypyrimidine-5-carbonyl)-2,5-diazabicyclo[4.2.0]octan-2-yl]-2-(3,6-dihydro-2H-pyran-4-yl)-5-ethyl-7-oxo-2H,4H,7H-[1,2,3]triazolo[4,5-b]pyridin-4-yl}-N-{3-cyclopropylbicyclo[1.1.1]pentan-1-yl}acetamide] yielded an IC50 [1] of 5 to 50 nM and an EC50 ([2]; Homo sapiens) of 500 to 2000 nM.
Work on CCc1c(N2CCN(C(=O)c3cc4cc[nH]c4nc3OC)[C@H]3CC[C@@H]32)c(=O)c2nn(C3=CCOCC3)nc2n1CC(=O)NC12CC(C(C)C)(C1)C2 [Compound I-157, 2-[2-(3,6-dihydro-2H-pyran-4-yl)-5-ethyl-6-[(1S,6S)-5-{6-methoxy-1H-pyrrolo[2,3-b]pyridine-5-carbonyl}-2,5-diazabicyclo[4.2.0]octan-2-yl]-7-oxo-2H,4H,7H-[1,2,3]triazolo[4,5-b]pyridin-4-yl]-N-[3-(propan-2-yl)bicyclo[1.1.1]pentan-1-yl]acetamide] yielded an IC50 [1] of 5 to 50 nM and an EC50 ([2]; Homo sapiens) of at most 500 nM.
For CCc1c(N2CCN(C(=O)c3c(OC)ncc(C)c3O)CC2)c(=O)c2nn(-c3ccnc(OC)c3)nc2n1CC(=O)NC1CC2(CC(C)C2)C1 (stereo not drawn) [Compound I-103, 2-{5-ethyl-6-[4-(4-hydroxy-2-methoxy-5-methylpyridine-3-carbonyl)piperazin-1-yl]-2-(2-methoxypyridin-4-yl)-7-oxo-2H,4H,7H-[1,2,3]triazolo[4,5-b]pyridin-4-yl}-N-{6-methylspiro[3.3]heptan-2-yl}acetamide], the IC50 [1] was 5 to 50 nM and the EC50 ([2]; Homo sapiens) was 2000 to 5000 nM.
With CCc1c(N2CCN(C(=O)c3ncnc(C)c3O)[C@H]3CC[C@@H]32)c(=O)c2nn(-c3ccnc(OC)c3)nc2n1CC(=O)NC12CC(C(C)C)(C1)C2 [Compound I-48, 2-{5-ethyl-6-[(1S,6S)-5-(5-hydroxy-6-methylpyrimidine-4-carbonyl)-2,5-diazabicyclo[4.2.0]octan-2-yl]-2-(2-methoxypyridin-4-yl)-7-oxo-2H,4H,7H-[1,2,3]triazolo[4,5-b]pyridin-4-yl}-N-[3-(propan-2-yl)bicyclo[1.1.1]pentan-1-yl]acetamide] the IC50 [1] was 5 to 50 nM and the EC50 [2] was at most 500 nM.
